# Source: PubChem BioAssay AID2060342 (Molecular Pharmacology Branch, DTP, NCI, 2025)
# Tested on: 171881-019-R-J1-PDC multicell spheroid viability
# Assay: Anticancer human tumor 171881-019-R-J1-PDC patient-derived invasive breast carcinoma cell line growth inhibition [IpAb]
# Settings: for viability, T/C: stronger effect = lower value
# How it was run: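 Spheroids of 60% malignant cells, 25% HUVEC and 15% MSC were exposed to targeted agents combined with ipatasertib or abemaciclib. Doses started at or near clinical Cmax (10 microM when unknown) and fell in half-log steps.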
# [1] = curve of first compound, second compound 0.1 µM
# [2] = curve of first compound, second compound 0.316 µM
# [3] = curve of first compound, second compound 1 µM
# [4] = curve of first compound, second compound 3.16 µM
# [5] = curve of first compound, second compound 10 µM
# [6] = second compound 0.1 µM, first compound 0.0316 µM
# [7] = second compound 0.1 µM, first compound 0.1 µM
# [8] = second compound 0.316 µM, first compound 0.0316 µM
# [9] = second compound 0.316 µM, first compound 0.1 µM
# [10] = second compound 1 µM, first compound 0.0316 µM
# [11] = second compound 1 µM, first compound 0.1 µM
# 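Note: spheroids exposed to the agents for seven days before readout.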
smiles,measurement,setting,value
CC(C)n1nc(-c2ccc3oc(N)nc3c2)c2c(N)ncnc21 + CC(C)NCC(C(=O)N1CCN(c2ncnc3c2C(C)CC3O)CC1)c1ccc(Cl)cc1,IC50,[1],0.00365 µM
same,IC50,[2],0.000877 µM
same,IC50,[3],< 0.000316 µM
same,IC50,[4],< 0.000316 µM
same,IC50,[5],< 0.000316 µM
same,"viability, T/C","second compound 0.1 µM, first compound 0.000316 µM",116%
same,"viability, T/C","second compound 0.1 µM, first compound 0.001 µM",101%
same,"viability, T/C","second compound 0.1 µM, first compound 0.00316 µM",56.6%
same,"viability, T/C","second compound 0.1 µM, first compound 0.01 µM",11.2%
same,"viability, T/C",[6],2.88%
same,"viability, T/C",[7],2%
same,"viability, T/C","second compound 0.316 µM, first compound 0.000316 µM",69.3%
same,"viability, T/C","second compound 0.316 µM, first compound 0.001 µM",47.4%
same,"viability, T/C","second compound 0.316 µM, first compound 0.00316 µM",16.7%
same,"viability, T/C","second compound 0.316 µM, first compound 0.01 µM",3.76%
same,"viability, T/C",[8],1.96%
same,"viability, T/C",[9],1.7%
same,"viability, T/C","second compound 1 µM, first compound 0.000316 µM",20%
same,"viability, T/C","second compound 1 µM, first compound 0.001 µM",9.02%
same,"viability, T/C","second compound 1 µM, first compound 0.00316 µM",5.13%
same,"viability, T/C","second compound 1 µM, first compound 0.01 µM",2.23%
same,"viability, T/C",[10],1.26%
same,"viability, T/C",[11],1.29%
same,"viability, T/C","second compound 3.16 µM, first compound 0.000316 µM",8.5%
same,"viability, T/C","second compound 3.16 µM, first compound 0.001 µM",4.98%
same,"viability, T/C","second compound 3.16 µM, first compound 0.00316 µM",2.85%
same,"viability, T/C","second compound 3.16 µM, first compound 0.01 µM",1.62%
same,"viability, T/C","second compound 3.16 µM, first compound 0.0316 µM",1.09%
same,"viability, T/C","second compound 3.16 µM, first compound 0.1 µM",0.93%
same,"viability, T/C","second compound 10 µM, first compound 0.000316 µM",5.26%
same,"viability, T/C","second compound 10 µM, first compound 0.001 µM",3.35%
same,"viability, T/C","second compound 10 µM, first compound 0.00316 µM",2.04%
same,"viability, T/C","second compound 10 µM, first compound 0.01 µM",1.47%
same,"viability, T/C","second compound 10 µM, first compound 0.0316 µM",0.84%
same,"viability, T/C","second compound 10 µM, first compound 0.1 µM",1%
CCCS(=O)(=O)Nc1ccc(F)c(C(=O)c2c[nH]c3ncc(-c4ccc(Cl)cc4)cc23)c1F + CCN1CCN(Cc2ccc(Nc3ncc(F)c(-c4cc(F)c5nc(C)n(C(C)C)c5c4)n3)nc2)CC1,IC50,"curve of first compound, second compound 0.01 µM",> 10 µM
same,IC50,"curve of first compound, second compound 0.0316 µM",> 10 µM
same,IC50,[1],> 10 µM
same,IC50,[2],> 10 µM
same,IC50,[3],> 10 µM
same,"viability, T/C","second compound 0.01 µM, first compound 0.0316 µM",103%
same,"viability, T/C","second compound 0.01 µM, first compound 0.1 µM",80.8%
same,"viability, T/C","second compound 0.01 µM, first compound 0.316 µM",98.6%
same,"viability, T/C","second compound 0.01 µM, first compound 1 µM",87%
same,"viability, T/C","second compound 0.01 µM, first compound 3.16 µM",82.9%
same,"viability, T/C","second compound 0.01 µM, first compound 10 µM",83.9%
same,"viability, T/C","second compound 0.0316 µM, first compound 0.0316 µM",96.1%
same,"viability, T/C","second compound 0.0316 µM, first compound 0.1 µM",88.5%
same,"viability, T/C","second compound 0.0316 µM, first compound 0.316 µM",90.9%
same,"viability, T/C","second compound 0.0316 µM, first compound 1 µM",91.6%
same,"viability, T/C","second compound 0.0316 µM, first compound 3.16 µM",85.4%
same,"viability, T/C","second compound 0.0316 µM, first compound 10 µM",92.3%
same,"viability, T/C",[6],113%
same,"viability, T/C",[7],94.9%
same,"viability, T/C","second compound 0.1 µM, first compound 0.316 µM",107%
same,"viability, T/C","second compound 0.1 µM, first compound 1 µM",98.4%
same,"viability, T/C","second compound 0.1 µM, first compound 3.16 µM",95.5%
same,"viability, T/C","second compound 0.1 µM, first compound 10 µM",94.1%
same,"viability, T/C",[8],123%
same,"viability, T/C",[9],129%
same,"viability, T/C","second compound 0.316 µM, first compound 0.316 µM",112%
same,"viability, T/C","second compound 0.316 µM, first compound 1 µM",113%
same,"viability, T/C","second compound 0.316 µM, first compound 3.16 µM",106%
same,"viability, T/C","second compound 0.316 µM, first compound 10 µM",99.2%
same,"viability, T/C",[10],143%
same,"viability, T/C",[11],143%
same,"viability, T/C","second compound 1 µM, first compound 0.316 µM",141%
same,"viability, T/C","second compound 1 µM, first compound 1 µM",137%
same,"viability, T/C","second compound 1 µM, first compound 3.16 µM",130%
same,"viability, T/C","second compound 1 µM, first compound 10 µM",119%
Cn1cnc2c(F)c(Nc3ccc(Br)cc3Cl)c(C(=O)NOCCO)cc21 + CC(C)NCC(C(=O)N1CCN(c2ncnc3c2C(C)CC3O)CC1)c1ccc(Cl)cc1,IC50,[1],0.54 µM
same,IC50,[2],0.188 µM
same,IC50,[3],< 0.00949 µM
same,IC50,[4],< 0.00949 µM
same,IC50,[5],< 0.00949 µM
same,"viability, T/C","second compound 0.1 µM, first compound 0.00949 µM",122%
same,"viability, T/C","second compound 0.1 µM, first compound 0.03 µM",125%
same,"viability, T/C","second compound 0.1 µM, first compound 0.0949 µM",107%
same,"viability, T/C","second compound 0.1 µM, first compound 0.3 µM",75.1%
same,"viability, T/C","second compound 0.1 µM, first compound 0.949 µM",26.3%
same,"viability, T/C","second compound 0.1 µM, first compound 3 µM",8.66%
same,"viability, T/C","second compound 0.316 µM, first compound 0.00949 µM",72.7%
same,"viability, T/C","second compound 0.316 µM, first compound 0.03 µM",69.6%
same,"viability, T/C","second compound 0.316 µM, first compound 0.0949 µM",62.4%
same,"viability, T/C","second compound 0.316 µM, first compound 0.3 µM",41.9%
same,"viability, T/C","second compound 0.316 µM, first compound 0.949 µM",14.2%
same,"viability, T/C","second compound 0.316 µM, first compound 3 µM",4.26%
same,"viability, T/C","second compound 1 µM, first compound 0.00949 µM",24.5%
same,"viability, T/C","second compound 1 µM, first compound 0.03 µM",26.6%
same,"viability, T/C","second compound 1 µM, first compound 0.0949 µM",21.2%
same,"viability, T/C","second compound 1 µM, first compound 0.3 µM",13.3%
same,"viability, T/C","second compound 1 µM, first compound 0.949 µM",4.61%
same,"viability, T/C","second compound 1 µM, first compound 3 µM",1.63%
same,"viability, T/C","second compound 3.16 µM, first compound 0.00949 µM",8.87%
same,"viability, T/C","second compound 3.16 µM, first compound 0.03 µM",7.75%
same,"viability, T/C","second compound 3.16 µM, first compound 0.0949 µM",5.99%
same,"viability, T/C","second compound 3.16 µM, first compound 0.3 µM",5.01%
same,"viability, T/C","second compound 3.16 µM, first compound 0.949 µM",1.73%
same,"viability, T/C","second compound 3.16 µM, first compound 3 µM",0.77%
same,"viability, T/C","second compound 10 µM, first compound 0.00949 µM",5.26%
same,"viability, T/C","second compound 10 µM, first compound 0.03 µM",3.72%
same,"viability, T/C","second compound 10 µM, first compound 0.0949 µM",3.22%
same,"viability, T/C","second compound 10 µM, first compound 0.3 µM",1.9%
same,"viability, T/C","second compound 10 µM, first compound 0.949 µM",1.16%
same,"viability, T/C","second compound 10 µM, first compound 3 µM",0.44%
CCN1CCN(Cc2ccc(Nc3ncc(F)c(-c4cc(F)c5nc(C)n(C(C)C)c5c4)n3)nc2)CC1,"viability, T/C",compound 0.01 µM,91.6% [middle of 13 runs]
same,"viability, T/C",compound 0.0316 µM,105% [middle of 13 runs]
same,"viability, T/C",compound 0.1 µM,116% [middle of 13 runs]
same,"viability, T/C",compound 1 µM,149% [middle of 13 runs]
same,IC50,"compound alone, run of 05/18/2021",> 1 µM
